In US9181255B2, “Fused heteroaromatic pyrrolidinones as SYK inhibitors” (Takeda Pharmaceutical Company Limited, priority 2009, dated 2015):
Where a name gives a salt, the structure may show the parent alone.

biological target: SYK (Homo sapiens, UniProt P43405); assay: SYK inhibition assay: SYK-mediated phosphorylation of FAM-labeled substrate (Caliper microfluidic); format: biochemical; conditions: read-out: SYK Inhibition (pIC50) (converted)

SMILES | IC50 [nM]
Cc1cccc(Nc2nc(N[C@@H]3CCCC[C@@H]3O)nc3c2C(=O)NC3)c1 (relative stereo) [Example 11, Cis-2-(2-Hydroxycyclohexylamino)-4-(m-tolylamino)-6,7-dihydro-5H-pyrrolo[3,4-d]pyrimidin-5-one] | 1260
Cc1cccc(Nc2nc(N[C@@H]3COC[C@@H]3N)cc3c2C(=O)NC3)c1 (relative stereo) [Example 58, 6-(cis-4-Aminotetrahydrofuran-3-ylamino)-4-(m-tolylamino)-1H-pyrrolo[3,4-c]pyridin-3(2H)-one] | 1580
Cn1cc(-c2nc(N[C@@H]3CC(F)(F)C[C@@H]3N)c(F)c3c2C(=O)NC3)cn1 (relative stereo) [Example 66, 6-(cis-2-Amino-4,4-difluorocyclopentylamino)-7-fluoro-4-(1-methyl-1H-pyrazol-4-yl)-1H-pyrrolo[3,4-c]pyridin-3(2H)-one] | 501
Cn1cc(-c2nc(N[C@@H]3CCCC(F)(F)[C@@H]3N)c(F)c3c2C(=O)NC3)cn1 (relative stereo) [Example 67, 6-(cis-2-Amino-3,3-difluorocyclohexylamino)-7-fluoro-4-(1-methyl-1H-pyrazol-4-yl)-1H-pyrrolo[3,4-c]pyridin-3(2H)-one] | 39.8
N[C@@H]1[C@H](Nc2nc(-c3cnn(C(F)F)c3)c3c(c2F)CNC3=O)CCCC1(F)F (relative stereo) [Example 68, 6-(cis-2-Amino-3,3-difluorocyclohexylamino)-4-(1-(difluoromethyl)-1H-pyrazol-4-yl)-7-fluoro-1H-pyrrolo[3,4-c]pyridin-3(2H)-one] | 100
N[C@@H]1[C@H](Nc2nc(-c3cnn(C4CC4)c3)c3c(c2F)CNC3=O)CCCC1(F)F (relative stereo) [Example 69, 6-(cis-2-amino-3,3-difluorocyclohexylamino)-4-(1-cyclopropyl-1H-pyrazol-4-yl)-7-fluoro-1H-pyrrolo[3,4-c]pyridin-3(2H)-one] | 158
Cc1cccc(Nc2nc(N[C@@H]3CCCC(F)(F)[C@@H]3N)cc3c2C(=O)NC3)c1 (relative stereo) [Example 83, 6-(cis-2-Amino-3,3-difluorocyclohexylamino)-4-(m-tolylamino)-1H-pyrrolo[3,4-c]pyridin-3(2H)-one] | 251
N[C@H]1CCCC[C@H]1Nc1nc2c(c(Nc3cccc(F)c3)n1)C(=O)NC2 [Example 2, 2-((1R,2S)-2-Aminocyclohexylamino)-4-(3-fluorophenylamino)-6,7-dihydro-5H-pyrrolo[3,4-c]pyrimidin-5-one] | 126
N[C@H]1CCCC[C@H]1Nc1nc2c(c(Nc3cccc(Cl)c3)n1)C(=O)NC2 [Example 3, 2-((1R,2S)-2-Aminocyclohexylamino)-4-(3-chlorophenylamino)-6,7-dihydro-5H-pyrrolo[3,4-d]pyrimidin-5-one] | 25.1
N[C@H]1CCCC[C@H]1Nc1nc2c(c(Nc3ccc4cn[nH]c4c3)n1)C(=O)NC2 [Example 4, 4-(1H-Indazol-6-ylamino)-2-((1R,2S)-2-aminocyclohexylamino)-6,7-dihydro-5H-pyrrolo[3,4-c]pyrimidin-5-one] | 15.8
Cc1cccc(Nc2nc(-c3cnn(C)c3)nc3c2C(=O)NC3)c1 [Example 7, 2-(1-Methyl-1H-pyrazol-4-yl)-4-(m-tolylamino)-6,7-dihydro-5H-pyrrolo[3,4-c]pyrimidin-5-one] | 1000
CCN1CCN(c2nc3c(c(Nc4cccc(C)c4)n2)C(=O)NC3)CC1 [Example 9, 2-(4-Ethylpiperazin-1-yl)-4-(m-tolylamino)-6,7-dihydro-5H-pyrrolo[3,4-d]pyrimidin-5-one] | 7940
Cc1cccc(Nc2nc(NC3CCCCC3)nc3c2C(=O)NC3)c1 [Example 10, 2-(Cyclohexylamino)-4-(m-tolylamino)-6,7-dihydro-5H-pyrrolo[3,4-d]pyrimidin-5-one] | > 20000
Cc1cccc(Nc2nc(N3CCCC(N)C3)nc3c2C(=O)NC3)c1 (centres unmarked) [Example 12, 2-(3-Aminopiperidin-1-yl)-4-(m-tolylamino)-6,7-dihydro-5H-pyrrolo[3,4-d]pyrimidin-5-one] | 2000
Cn1cc(-c2nc(N[C@@H]3CCCC[C@@H]3N)nc3c2C(=O)NC3)cn1 [Example 14, 2-((1R,2S)-2-Aminocyclohexylamino)-4-(1-methyl-1H-pyrazol-4-yl)-6,7-dihydro-5H-pyrrolo[3,4-d]pyrimidin-5-one] | 126
CC(C)Cn1cc(-c2nc(N[C@@H]3CCCC[C@@H]3N)nc3c2C(=O)NC3)cn1 [Example 15, 2-((1R,2S)-2-Aminocyclohexylamino)-4-(1-isobutyl-1H-pyrazol-4-yl)-6,7-dihydro-5H-pyrrolo[3,4-c]pyrimidin-5-one] | 1000
N[C@H]1CCCC[C@H]1Nc1nc2c(c(-c3ccccc3)n1)C(=O)NC2 [Example 16, 2-((1R,2S)-2-Aminocyclohexylamino)-4-phenyl-6,7-dihydro-5H-pyrrolo[3,4-d]pyrimidin-5-one] | 3160
N[C@H]1CCCC[C@H]1Nc1nc2c(c(-c3csc4ccccc34)n1)C(=O)NC2 [Example 17, 2-((1R,2S)-2-Aminocyclohexylamino)-4-(benzo[b]thiophen-3-yl)-6,7-dihydro-5H-pyrrolo[3,4-c]pyrimidin-5-one] | 39.8

SMILES | IC50 [nM]
CCn1cc(-c2nc(N[C@@H]3CCCC[C@@H]3N)nc3c2C(=O)NC3)cn1 [Example 18, 2-((1R,2S)-2-Aminocyclohexylamino)-4-(1-ethyl-1H-pyrazol-4-yl)-6,7-dihydro-5H-pyrrolo[3,4-d]pyrimidin-5-one] | 79.4
N[C@H]1CCCC[C@H]1Nc1nc2c(c(-c3cnn(Cc4ccccc4)c3)n1)C(=O)NC2 [Example 19, 2-((1R,2S)-2-Aminocyclohexylamino)-4-(1-benzyl-1H-pyrazol-4-yl)-6,7-dihydro-5H-pyrrolo[3,4-d]pyrimidin-5-one] | 251
N[C@H]1CCCC[C@H]1Nc1nc2c(c(-c3cnc4ccccn34)n1)C(=O)NC2 [Example 20, 2-((1R,2S)-2-Aminocyclohexylamino)-4-(imidazo[1,2-a]pyridin-3-yl)-6,7-dihydro-5H-pyrrolo[3,4-d]pyrimidin-5-one] | 200
CCCn1cc(-c2nc(N[C@@H]3CCCC[C@@H]3N)nc3c2C(=O)NC3)cn1 [Example 21, 2-((1R,2S)-2-Aminocyclohexylamino)-4-(1-propyl-1H-pyrazol-4-yl)-6,7-dihydro-5H-pyrrolo[3,4-c]pyrimidin-5-one] | 501
COCCn1cc(-c2nc(N[C@@H]3CCCC[C@@H]3N)nc3c2C(=O)NC3)cn1 [Example 22, 2-((1R,2S)-2-Aminocyclohexylamino)-4-(1-(2-methoxyethyl)-1H-pyrazol-4-yl)-6,7-dihydro-5H-pyrrolo[3,4-d]pyrimidin-5-one] | 2000
N[C@H]1CCCC[C@H]1Nc1cc2c(c(Nc3ccc4cn[nH]c4c3)n1)C(=O)NC2 [Example 23, 4-(1H-Indazol-6-ylamino)-6-((1R,2S)-2-aminocyclohexylamino)-1H-pyrrolo[3,4-c]pyridin-3(2H)-one] | 2
Cc1cc(Nc2nc(N[C@@H]3CCCC[C@@H]3N)cc3c2C(=O)NC3)ccc1F [Example 24, 6-((1R,2S)-2-Aminocyclohexylamino)-4-(4-fluoro-3-methylphenylamino)-1H-pyrrolo[3,4-c]pyridin-3(2H)-one] | 25.1
Cn1cc(-c2nc(N[C@@H]3CCCC[C@@H]3N)cc3c2C(=O)NC3)cn1 [Example 26, 6-((1R,2S)-2-Aminocyclohexylamino)-4-(1-methyl-1H-pyrazol-4-yl)-1H-pyrrolo[3,4-c]pyridin-3(2H)-one] | 31.6
Cn1cc(-c2nc(N[C@@H]3CCOC[C@@H]3N)cc3c2C(=O)NC3)cn1 [Example 27, 6-((3R,4R)-3-Aminotetrahydro-2H-pyran-4-ylamino)-4-(1-methyl-1H-pyrazol-4-yl)-1H-pyrrolo[3,4-c]pyridin-3(2H)-one] | 39.8
Cn1cc(-c2nc(N[C@@H]3CCCC[C@@H]3N)c(Cl)c3c2C(=O)NC3)cn1 [Example 29, 6-((1R,2S)-2-Aminocyclohexylamino)-7-chloro-4-(1-methyl-1H-pyrazol-4-yl)-1H-pyrrolo[3,4-c]pyridin-3(2H)-one] | 3.16
N[C@H]1CCCC[C@H]1Nc1nc(-c2cnn3ccccc23)c2c(c1F)CNC2=O [Example 31, 6-((1R,2S)-2-Aminocyclohexylamino)-7-fluoro-4-(pyrazolo[1,5-a]pyridin-3-yl)-1H-pyrrolo[3,4-c]pyridin-3(2H)-one] | 2.51
Cc1cccc(Nc2nc(N3CCCCC3CN)nc3c2C(=O)NC3)c1 (centres unmarked) [Example 32, 2-(2-(Aminomethyl)piperidin-1-yl)-4-(m-tolylamino)-6,7-dihydro-5H-pyrrolo[3,4-c]pyrimidin-5-one] | 3980
CS(=O)(=O)c1cccc(Nc2nc(N[C@@H]3CCCC[C@@H]3N)cc3c2C(=O)NC3)c1 [Example 33, 6-((1R,2S)-2-Aminocyclohexylamino)-4-(3-(methylsulfonyl)phenylamino)-1H-pyrrolo[3,4-c]pyridin-3(2H)-one] | 50.1
CS(=O)(=O)c1cccc(Nc2nc(N[C@@H]3CCC[C@@H]3N)cc3c2C(=O)NC3)c1 [Example 34, 6-((1R,2S)-2-Aminocyclopentylamino)-4-(3-(methylsulfonyl)phenylamino)-1H-pyrrolo[3,4-c]pyridin-3(2H)-one (HCl salt)] | 316
CC(C)C[C@@H](Nc1cc2c(c(Nc3cccc(S(C)(=O)=O)c3)n1)C(=O)NC2)C(N)=O [Example 35, (R)-4-Methyl-2-(4-(3-(methylsulfonyl)phenylamino)-3-oxo-2,3-dihydro-1H-pyrrolo[3,4-c]pyridin-6-ylamino)pentanamide] | 50.1
CC(C)C[C@@H](Nc1cc2c(c(-c3cnn(C)c3)n1)C(=O)NC2)C(N)=O [Example 36, (R)-4-Methyl-2-(4-(1-methyl-1H-pyrazol-4-yl)-3-oxo-2,3-dihydro-1H-pyrrolo[3,4-c]pyridin-6-ylamino)pentanamide] | 25.1
Cc1cccc(Nc2nc(N[C@@H]3CCCC[C@@H]3N(C)C)nc3c2C(=O)NC3)c1 [Example 37, 2-((1R,2S)-2-(Dimethylamino)cyclohexylamino)-4-(m-tolylamino)-6,7-dihydro-5H-pyrrolo[3,4-d]pyrimidin-5-one] | 1000
